± gives the standard deviation of the averaged measurements.

Compound in the assay: CC(=O)N1CCc2c(c(N3CCCc4cc(-c5cnn(C)c5)c(C(F)F)cc43)nn2C2CCC(CN3CCN(c4ccc5c(c4)C(=O)N(C4CCC(=O)NC4=O)C5=O)CC3)CC2)C1 [CBPD-409]
The experiment in a line: AUC of viability dose-response curve (relative to vehicle, 8 doses up to 10 µM) (fraction); higher = less sensitive (more viable); extreme values may be limits of the assay. How it is done:
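PRISM multiplexed pooled barcoded cell line viability screen at the Broad Institute, 887 cancer cell lines treated with CBPD-409 (p300/CBP PROTAC degrader) at 8 concentrations in threefold dilution, top dose 10 µM. The read-out is the area under the dose-response curve of relative viability versus vehicle (n=3). AUC < 0.3 is called strongly sensitive and AUC > 0.8 resistant.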

For the test system TGBC52TKB_BILIARY_TRACT, the “AUC of viability dose-response curve” value amounted to 0.745. Regarding CORL279_LUNG, the “AUC of viability dose-response curve” value was determined as 1. In the case of 253JBV_URINARY_TRACT, the “AUC of viability dose-response curve” value stood at 1. As to C4I_CERVIX, the “AUC of viability dose-response curve” value is 0.999. As for JHH1_LIVER, the “AUC of viability dose-response curve” value worked out at 0.282. On to ECGI10_OESOPHAGUS, for which the “AUC of viability dose-response curve” value came to 0.903. Regarding EW8_BONE, the “AUC of viability dose-response curve” value stood at 0.946. With “WAOSEL_HAEMATOPOIETIC_AND_LYMPHOID_TISSUE”, the “AUC of viability dose-response curve” value was determined as 0.826. In the case of “NOMO1_HAEMATOPOIETIC_AND_LYMPHOID_TISSUE”, the “AUC of viability dose-response curve” value was 0.279. Then SEM_HAEMATOPOIETIC_AND_LYMPHOID_TISSUE, with 0.347.

Regarding TFK1_BILIARY_TRACT, the “AUC of viability dose-response curve” value stood at 0.717. OVTOKO_OVARY: the “AUC of viability dose-response curve” value stood at 0.781. Then SNU1066_UPPER_AERODIGESTIVE_TRACT, with 1.

On to DU145_PROSTATE, for which the “AUC of viability dose-response curve” value is 0.946.

For the test system CASKI_CERVIX, the “AUC of viability dose-response curve” value stood at 0.376. For YKG1_CENTRAL_NERVOUS_SYSTEM, the “AUC of viability dose-response curve” value is 0.584.

RERFLCAI_LUNG: the “AUC of viability dose-response curve” value came out at 0.913. With ONCODG1_OVARY, the “AUC of viability dose-response curve” value was 1. As for “TALL1_HAEMATOPOIETIC_AND_LYMPHOID_TISSUE”, the “AUC of viability dose-response curve” value stood at 0.762. As to JM1_HAEMATOPOIETIC_AND_LYMPHOID_TISSUE, the “AUC of viability dose-response curve” value stood at 0.4.

Turning to HCC38_BREAST, the “AUC of viability dose-response curve” value is 0.323. With 42MGBA_CENTRAL_NERVOUS_SYSTEM, the “AUC of viability dose-response curve” value worked out at 0.485.

For BT549_BREAST, the “AUC of viability dose-response curve” value was 1.

For OV17R_OVARY, the “AUC of viability dose-response curve” value was 0.712. “ALLSIL_HAEMATOPOIETIC_AND_LYMPHOID_TISSUE”: the “AUC of viability dose-response curve” value amounted to 0.917. In the case of RCK8_HAEMATOPOIETIC_AND_LYMPHOID_TISSUE, the “AUC of viability dose-response curve” value was 0.633. Take CALU1_LUNG: the “AUC of viability dose-response curve” value came out at 0.901. As for LS513_LARGE_INTESTINE, the “AUC of viability dose-response curve” value is 0.568. Consider LNCAPCLONEFGC_PROSTATE, for which the “AUC of viability dose-response curve” value was determined as 0.249. Then JHUEM2_ENDOMETRIUM, with 0.965. For the test system NCIH1876_LUNG, the “AUC of viability dose-response curve” value was 1. Take RL_HAEMATOPOIETIC_AND_LYMPHOID_TISSUE: the “AUC of viability dose-response curve” value was 0.651.

Take LN464_CENTRAL_NERVOUS_SYSTEM: the “AUC of viability dose-response curve” value stood at 0.404.

Turning to HCC1428_BREAST, the “AUC of viability dose-response curve” value was determined as 0.667. Consider EFM19_BREAST, for which the “AUC of viability dose-response curve” value stood at 0.575. Take ISTMES1_PLEURA: the “AUC of viability dose-response curve” value was 0.481. Take PANC0327_PANCREAS: the “AUC of viability dose-response curve” value turned out to be 1.

As to HT115_LARGE_INTESTINE, the “AUC of viability dose-response curve” value was found to be 1. With HCC1937_BREAST, the “AUC of viability dose-response curve” value was 0.957. Take U178_CENTRAL_NERVOUS_SYSTEM: the “AUC of viability dose-response curve” value was 0.636.

For SNU638_STOMACH, the “AUC of viability dose-response curve” value was 0.48.

Regarding PANC1005_PANCREAS, the “AUC of viability dose-response curve” value was 1. As for HT_HAEMATOPOIETIC_AND_LYMPHOID_TISSUE, the “AUC of viability dose-response curve” value came out at 0.672. For the test system IGR37_SKIN, the “AUC of viability dose-response curve” value worked out at 0.229. With HUPT3_PANCREAS, the “AUC of viability dose-response curve” value came out at 0.687.

For the test system RMUGS_OVARY, the “AUC of viability dose-response curve” value was determined as 0.866. Regarding “RPMI8402_HAEMATOPOIETIC_AND_LYMPHOID_TISSUE”, the “AUC of viability dose-response curve” value is 0.266. On to RPMI7951_SKIN, for which the “AUC of viability dose-response curve” value came out at 1. On to KYSE150_OESOPHAGUS, for which the “AUC of viability dose-response curve” value was found to be 0.834. For the test system PACADD161_PANCREAS, the “AUC of viability dose-response curve” value turned out to be 0.652. Take NUGC3_STOMACH: the “AUC of viability dose-response curve” value stood at 1. Consider NOZ_LIVER, for which the “AUC of viability dose-response curve” value came out at 1. In the case of HEC151_ENDOMETRIUM, the “AUC of viability dose-response curve” value was 1. Turning to COLO741_SKIN, the “AUC of viability dose-response curve” value is 0.559.

In the case of CI1_HAEMATOPOIETIC_AND_LYMPHOID_TISSUE, the “AUC of viability dose-response curve” value was 0.674. TE8_OESOPHAGUS: the “AUC of viability dose-response curve” value is 0.646. Then YSCCC_BILIARY_TRACT, with 0.853. For NCIH226_LUNG, the “AUC of viability dose-response curve” value was 0.519.

As for DL_SOFT_TISSUE, the “AUC of viability dose-response curve” value came out at 0.471. CAL27_UPPER_AERODIGESTIVE_TRACT: the “AUC of viability dose-response curve” value stood at 0.961. Then EWS502_BONE, with 0.749 ± 0.15; and HSC1_SKIN, with 1. On to HCC827_LUNG, for which the “AUC of viability dose-response curve” value was 0.731. As for GAMG_CENTRAL_NERVOUS_SYSTEM, the “AUC of viability dose-response curve” value came to 0.77. Consider NCIH28_PLEURA, for which the “AUC of viability dose-response curve” value stood at 1. For the test system GCT_SOFT_TISSUE, the “AUC of viability dose-response curve” value worked out at 0.541. Consider OVK18_OVARY, for which the “AUC of viability dose-response curve” value stood at 0.365.

On to AMO1_HAEMATOPOIETIC_AND_LYMPHOID_TISSUE, for which the “AUC of viability dose-response curve” value stood at 0.46.

On to KYSE140_OESOPHAGUS, for which the “AUC of viability dose-response curve” value is 1. As for AU565_BREAST, the “AUC of viability dose-response curve” value was 1. With MS751_CERVIX, the “AUC of viability dose-response curve” value stood at 0.923. Regarding GB2_BILIARY_TRACT, the “AUC of viability dose-response curve” value came out at 0.826. For the test system SNU886_LIVER, the “AUC of viability dose-response curve” value was found to be 0.853.

On to JVM3_HAEMATOPOIETIC_AND_LYMPHOID_TISSUE, for which the “AUC of viability dose-response curve” value is 1. Take YH13_CENTRAL_NERVOUS_SYSTEM: the “AUC of viability dose-response curve” value was 0.75.

With KNS42_CENTRAL_NERVOUS_SYSTEM, the “AUC of viability dose-response curve” value is 0.413. As to NCIH1915_LUNG, the “AUC of viability dose-response curve” value turned out to be 0.697. For the test system MDAMB361_BREAST, the “AUC of viability dose-response curve” value was 0.368. Then MSTO211H_PLEURA, with 0.672; and NCIH157DM_LUNG, with 0.559. For the test system CCLFPEDS0003T_SOFT_TISSUE, the “AUC of viability dose-response curve” value was found to be 0.392. In the case of NCIH1693_LUNG, the “AUC of viability dose-response curve” value worked out at 0.949. Regarding JHH7_LIVER, the “AUC of viability dose-response curve” value came to 0.291. Consider KE97_STOMACH, for which the “AUC of viability dose-response curve” value is 1.

As for NCIH82_LUNG, the “AUC of viability dose-response curve” value worked out at 1. With KE37_HAEMATOPOIETIC_AND_LYMPHOID_TISSUE, the “AUC of viability dose-response curve” value was 0.925. With BHY_UPPER_AERODIGESTIVE_TRACT, the “AUC of viability dose-response curve” value turned out to be 0.851. Turning to KLE_ENDOMETRIUM, the “AUC of viability dose-response curve” value is 0.91. With CAS1_CENTRAL_NERVOUS_SYSTEM, the “AUC of viability dose-response curve” value stood at 0.665. With “MOLT3_HAEMATOPOIETIC_AND_LYMPHOID_TISSUE”, the “AUC of viability dose-response curve” value was found to be 1.
